Experiments:
[1] = tested on: patient having a cancer or tumor; details: intravenous 1.5 to 6 g per day per adult; cited from earlier work
[2] = tested on: rat glioma C6 cells; assay: Morphological change of C6 cells (phase-contrast microscope); assay type: cell-based; details: 125 μg/ml SBA, 3 days
[3] = tested on: rat glioma C6 cells; assay: Number of surviving C6 cells after SBA treatment (trypan blue); assay type: cell-based; details: 3 days treatment
Method: Rat glioma C6 cells obtained from Japanese Cancer Research Resource Bank (JCRB) were inoculated on a medium in an amount of 1×10^5 cells/schale, cultured for 24 hours. […] Then, the cells were dyed with 0.2% trypan blue, then, the number of surviving cells was counted. The counted value of cell number represents average value±standard error (SE) of three continuous tests [*P<0.00301 and *P<0.00001 (in comparison with contrast)]. The counted value is shown as a bar graph in FIG. 3. This test was conducted in the absence of SBA, as a control test.

[4] = tested on: patients having a cancer or tumor; assay: Clinical trial, intravenous SBA in patients having a cancer or tumor; assay type: in vivo, human
Description: SBA can be administered, not only intravenously, but also into an abdominal cavity or subcutaneously, or orally.

[5] = tested on: human neuroblastoma IMR-32 cells; assay: Pseudo-ganglion formation / differentiation of IMR-32 cells (phase-contrast microscope); assay type: cell-based
Description: As [^3H] acetyl-coenzyme A (acetyl-CoA), a product manufactured by Amersham was used, and as propidium iodide, acridine orange and choline chloride, products manufactured by Sigma were used. As fetal bovine serum (hereinafter, abbreviated as FCS), a product manufactured by Cansera International was used.
Morphological change of the cells, and the number of pseudo-ganglia formed were observed under a phase-contrast microscope (magnification: 200).

For `O=C1O[C@H]([C@@H]2COC(c3ccccc3)O2)C(O)=C1O` (stereo partly drawn) [SBA, mono-sodium 5,6-O-benzylidene-L-ascorbate], the “total dimension of the carcinoma or tumor” value [1] is given as “decreases”, the “morphological change of C6 cells” value [2] is given as “Formation of astrocytes was recognized” and the “CD50 (proliferation of C6 cells)” value [3] is given as 250 µg/mL. For the same molecule, the “effect on cancer in patient with attendant rheumatoid arthritis” value ([4]; 3 mg/body once per day) was “the cancer reduces”, the “differentiation of cancer or tumor cells in patients” value ([4]; intravenous 1 mg/body to 10 mg/body once per day per adult, 35 examples) was “induce differentiation of cancer cells or tumor cells into normal cells efficiently” and the “differentiation of malignant cells forming new blood vessel” value ([4]; patient with augmented new blood vessel in eye and eyeground hemorrhage, intravenous 1 to 10 mg/body once per day) was “induces differentiation of malignant cells forming new blood vessel into normal cells”. The “survived cells induced to differentiate into neurocytes having neuritis” value ([5]; 500 μg/ml SBA) was 20 to 30% and the “morphological change / formation of pseudo-ganglia” value ([5]; SBA treatment 48 hours) was “IMR-32 cells form pseudo-ganglia”.

Reference: US20040254123A1, “Malignant cell differentiation inducer compositions and utilization of the same” (priority 2001, published 2004)
